The record followed here is ChEMBL document CHEMBL3397030, “Synthesis and biological evaluation of 3-phenyl-3-aryl carboxamido propanoic acid derivatives as small molecule inhibitors of retinoic acid 4-hydroxylase (CYP26A1)” (Bioorg Med Chem, 2015).

Activity calls are given as the source filed them. No cut-off for these calls is given here.

The nature of assay [1]: Growth inhibition of human HL60 cells at 10 uM after 48 hrs by MTT assay. In kind it is functional. The settings on record: HL-60, 48 h, read-out: GI.
Assay [2] can be described thus: Growth inhibition of human HL60 cells at 10 uM in presence of 0.1 uM ATRA after 48 hrs by MTT assay. It counts as functional, HL-60.
In assay [3] the test system is HL-60. Description: Induction of cell differentiation of human HL60 cells at 10 uM after 72 hrs by NBT dye based assay. It counts as functional.
Assay [4] relates to HL-60. The assay is described as follows: Induction of cell differentiation of human HL60 cells at 10 uM in presence of 0.1 uM ATRA after 72 hrs by NBT dye based assay. In kind it is functional.
The target in a further assay is T1, Cytochrome P450 26A1 (Homo sapiens, UniProt O43174).
T1 sequence (O43174 whole entry): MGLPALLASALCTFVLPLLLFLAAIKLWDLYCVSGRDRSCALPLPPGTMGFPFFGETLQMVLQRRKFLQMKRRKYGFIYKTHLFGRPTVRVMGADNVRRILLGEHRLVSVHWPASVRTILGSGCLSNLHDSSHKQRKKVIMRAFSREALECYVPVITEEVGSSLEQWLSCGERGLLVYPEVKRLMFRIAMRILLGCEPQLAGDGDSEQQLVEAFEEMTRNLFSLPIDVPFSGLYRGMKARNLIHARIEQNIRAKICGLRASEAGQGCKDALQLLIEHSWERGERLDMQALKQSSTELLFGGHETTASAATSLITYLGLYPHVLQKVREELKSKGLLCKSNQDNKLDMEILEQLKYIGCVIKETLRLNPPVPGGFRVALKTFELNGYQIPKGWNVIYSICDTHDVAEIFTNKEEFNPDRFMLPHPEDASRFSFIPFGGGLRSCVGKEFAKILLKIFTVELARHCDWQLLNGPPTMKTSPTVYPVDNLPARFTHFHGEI
Description: Inhibition of CYP26A1 in ATRA-induced human HL60 cell microsomes incubated for 30 mins using ATRA and NADPH by HPLC method. In kind it is cell-based, HL-60.

Assay [5] can be described thus: Growth inhibition of human HL60 cells at 0.1 uM after 48 hrs by MTT assay. In kind it is functional. The settings on record: HL-60, 48 h, read-out: GI.
For assay [6], the system named is HL-60. Description: Induction of cell differentiation of human HL60 cells at 0.1 uM after 72 hrs by NBT dye based assay. In kind it is functional.
The subject of assay [7] is HL-60. Description: Induction of CYP26A1 expression in human HL60 cells at 0.1 uM after 72 hrs. It counts as functional, cell-based.

In the case of `Clc1cccc(C(c2ccc3[nH]cnc3c2)n2ccnc2)c1` (configuration not stated) [LIAROZOLE], the inhibition of growth at 10 µM in assay [1] was 15.4%. Also, the “growth inhibition (GI)” value in assay [2] came out at 48.26%. Further, the Activity in the assay with HL-60 [3] is reported as 0%; in the assay on HL-60 [4], 46.71%.
The term IC50 denotes the concentration that inhibits the measured activity by half. A high value points to weaker potency in that assay. `Cc1cc(C(=O)NC(CC(=O)O)c2ccc(Cl)cc2)c(C)o1` (configuration not stated): the IC50 against Cytochrome P450 26A1 is 2730 nM. Further, the inhibition of growth at 10 µM in assay [1] was 10.3%. In addition, the “growth inhibition (GI)” value in assay [2] was 49.53%. For the same compound, the Activity in the assay with HL-60 [3] came out at 0%; in the assay on HL-60 [4] it was 46.61%.
In the case of `CC1=C(/C=C/C(C)=C/C=C/C(C)=C/C(=O)O)C(C)(C)CCC1` [TRETINOIN], the inhibition of growth at 0.1 µM in assay [5] worked out at 23.8%. For the same compound, in the assay on HL-60 [6], the Activity is reported as 26.07%. In the assay with HL-60 [7], the result was Active.
In turn, `Cc1ccc(C(CC(=O)O)NC(=O)c2cc(C)oc2C)cc1` (configuration not stated) yielded an IC50 at Cytochrome P450 26A1 of 3090 nM. Besides, in assay [1], the inhibition of growth at 10 µM is 5.85%. Moreover, in assay [2], the “growth inhibition (GI)” value is on record as 44.85%. In addition, the Activity in the assay on HL-60 [3] amounted to 0%; in the assay with HL-60 [4] it was 42.62%.
At Cytochrome P450 26A1, `Cc1nn(-c2ccccc2)c(Cl)c1C(=O)NC(CC(=O)O)c1cccc(Br)c1` (configuration not stated) had an IC50 of 1870 nM. Also, the inhibition of growth at 10 µM in assay [1] amounted to 6.16%. In assay [2], the “growth inhibition (GI)” value was found to be 56.15%. Besides, the figures for the Activity with HL-60 [3] and in the assay with HL-60 [4] were 0% and 48.51%, respectively.
